What was measured:
[1] = molecular target: T1, COX-1 (Ovis aries, UniProt P05979); assay: Inhibition of COX-1 by NSAID derivatives (species not stated); format: biochemical
T1 sequence (P05979 25-600): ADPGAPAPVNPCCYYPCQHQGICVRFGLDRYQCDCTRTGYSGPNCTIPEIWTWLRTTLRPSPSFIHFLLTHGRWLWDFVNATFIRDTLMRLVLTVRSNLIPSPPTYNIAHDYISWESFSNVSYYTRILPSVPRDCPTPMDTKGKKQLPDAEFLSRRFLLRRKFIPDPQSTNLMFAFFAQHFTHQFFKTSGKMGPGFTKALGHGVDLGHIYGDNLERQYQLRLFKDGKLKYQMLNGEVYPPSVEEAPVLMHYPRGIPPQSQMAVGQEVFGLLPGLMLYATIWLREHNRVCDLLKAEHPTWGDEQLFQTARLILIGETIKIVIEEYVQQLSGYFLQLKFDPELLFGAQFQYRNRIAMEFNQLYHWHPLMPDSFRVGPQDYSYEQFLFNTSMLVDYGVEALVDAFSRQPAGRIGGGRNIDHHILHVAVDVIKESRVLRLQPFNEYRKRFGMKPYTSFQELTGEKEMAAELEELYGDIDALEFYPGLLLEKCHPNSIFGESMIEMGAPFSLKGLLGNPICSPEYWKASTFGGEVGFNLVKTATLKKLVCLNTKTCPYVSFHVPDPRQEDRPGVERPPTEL
Description: (§1) While the TLC assay described above provides considerable information, it is labor-intensive for screening large numbers of candidate NSAID derivatives. Accordingly, as an alternative, a simplified assay can be used. Incubation conditions can be essentially as described above, except all candidate derivatives are first screened at a concentration of 1 mM with a preincubation time of 30 minutes. The substrate need not be radiolabeled, and the reaction can be stopped by the addition of 2 μL of formic acid. Product formation can be quantitated by enzyme-linked immunosorbent assay (ELISA) using commercially available kits. […] Other in vitro assay methods for screening NSAID derivatives for activity (e.g., selectivity for the COX-2 enzyme) can also be used by the skilled artisan.

[2] = test system: rat carageenan footpad edema; assay: Rat carageenan footpad edema model; format: in vivo
Description: The first is the rat carageenan footpad model. Maximal edema is obtained in this model 3 hours after carageenan injection.

[3] = rat, in vivo
[4] = Metabolism by rat liver microsomes; format: in vitro ADME; settings: 0.125 mg/mL protein
Description: Preliminary metabolic studies were conducted using isolated liver microsome preparations.

[5] = molecular target: T2, COX-1 activity in uninduced macrophages (Mus musculus, UniProt P22437); assay: Inhibition of COX-1 activity in uninduced macrophages; format: cell-based, murine
T2 construct: endogenous in cells
T2 sequence (P22437 27-602): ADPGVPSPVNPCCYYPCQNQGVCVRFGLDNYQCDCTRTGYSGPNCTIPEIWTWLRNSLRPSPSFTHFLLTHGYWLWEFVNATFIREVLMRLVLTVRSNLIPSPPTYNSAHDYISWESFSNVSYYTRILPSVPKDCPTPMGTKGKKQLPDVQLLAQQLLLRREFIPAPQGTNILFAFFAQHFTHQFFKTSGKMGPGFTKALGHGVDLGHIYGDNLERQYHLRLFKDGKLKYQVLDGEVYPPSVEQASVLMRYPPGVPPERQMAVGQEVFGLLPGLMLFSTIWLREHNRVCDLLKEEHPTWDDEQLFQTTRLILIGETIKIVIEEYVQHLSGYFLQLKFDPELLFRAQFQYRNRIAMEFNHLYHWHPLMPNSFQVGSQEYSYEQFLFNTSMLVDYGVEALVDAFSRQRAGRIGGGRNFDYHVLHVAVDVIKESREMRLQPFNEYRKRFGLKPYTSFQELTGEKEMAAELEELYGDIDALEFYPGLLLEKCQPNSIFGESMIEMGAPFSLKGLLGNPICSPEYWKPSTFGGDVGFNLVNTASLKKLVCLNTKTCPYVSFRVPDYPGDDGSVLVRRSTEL

[6] = molecular target: T3, COX-2 activity in RAW 264.7 murine macrophage cell line (Mus musculus, UniProt Q05769); assay: Inhibition of COX-2 activity (PGD2 synthesis) in activated RAW264.7 macrophages; format: cell-based; settings: read-out: IC50 for inhibition of COX-2 activity in RAW 264.7 macrophages
T3 construct: The macrophages were exposed to lipopolysaccharide and γ-interferon to induce COX-2; endogenous in cells
T3 sequence (Q05769 18-604): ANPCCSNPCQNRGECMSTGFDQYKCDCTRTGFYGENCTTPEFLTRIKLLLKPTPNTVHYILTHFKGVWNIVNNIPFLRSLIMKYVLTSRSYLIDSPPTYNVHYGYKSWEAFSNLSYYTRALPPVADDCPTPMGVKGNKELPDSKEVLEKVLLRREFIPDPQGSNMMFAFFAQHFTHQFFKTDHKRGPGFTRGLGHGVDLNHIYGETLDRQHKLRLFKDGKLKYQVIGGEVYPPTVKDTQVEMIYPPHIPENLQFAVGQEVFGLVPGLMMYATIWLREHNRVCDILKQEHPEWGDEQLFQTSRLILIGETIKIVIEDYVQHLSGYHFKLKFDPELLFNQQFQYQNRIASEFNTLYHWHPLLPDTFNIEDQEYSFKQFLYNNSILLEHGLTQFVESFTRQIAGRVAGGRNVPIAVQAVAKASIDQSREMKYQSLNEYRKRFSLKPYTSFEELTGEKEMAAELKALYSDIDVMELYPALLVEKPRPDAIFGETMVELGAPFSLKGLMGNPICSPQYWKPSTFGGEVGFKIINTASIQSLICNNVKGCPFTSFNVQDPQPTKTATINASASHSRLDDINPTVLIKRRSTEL
Excerpt: Thus, NSAID derivatives that are identified as potentially useful in the methods described herein can be further tested using, for example, the RAW264.7 murine macrophage cell line. These cells are readily available (for example, from the American Type Culture Collection, Manassas, Va., United States of America) and are easily cultured in large numbers. They normally express low levels of COX-1 and very low to undetectable levels of COX-2. Upon exposure to bacterial lipopolysaccharide (LPS), however, COX-2 levels increase dramatically over the ensuing 24 hour period, and the cells produce PGD2 and PGE2 from endogenous arachidonic acid stores (generally, ˜1 nmol/10^7 cells total PG formation). After LPS exposure, the addition of exogenous arachidonic acid results in the formation of additional PGD2 and PGE2 as a result of metabolism by the newly synthesized COX-2.
This system provides a number of approaches for testing the inhibitory potency of COX-2-selective ligands (e.g., inhibitors). In general, following LPS activation, cells can be treated for 30 minutes with the desired concentrations of candidate derivative(s) in DMSO. ^14C-arachidonic acid can be added, and the cells can be incubated for 15 minutes at 37° C. Product formation can be assessed following extraction and TLC separation of the culture medium. Alternatively, the effects of candidate derivatives on PG synthesis from endogenous arachidonic acid can be assessed by incubating cells with desired concentrations of candidate derivatives 30 minutes prior to LPS exposure. Following a 24 hour incubation, medium can be collected and extracted, and the amount of PGD2 and/or PGE2 can be assayed by gas chromatography-mass spectrometry, liquid chromatography-mass spectrometry, or ELISA.
Inhibition of COX-2 Activity in Activated RAW264.7. Protocols for COX-2 inhibition in RAW264.7 cells have been previously described (Kalgutkar et al., 1998b). Briefly, cells (6.2×10^6 cells/T25 flask) were activated with lipopolysaccharide (1 μg/mL) and γ-interferon (10 U/mL) in serum-free DMEM for 7 hours and then treated with inhibitor (0-2 μM) for 30 minutes at 37° C. Exogenous arachidonate metabolism was determined by adding [1-^14C]-arachidonate acid (20 μM) for 15 minutes at 37° C. IC50 values are the average of two independent determinations.
The macrophages were exposed to lipopolysaccharide and γ-interferon to induce COX-2 and then treated with several concentrations of Compound 355.

[7] = molecular target: T4, COX-2 (Homo sapiens, UniProt P35354); assay: Inhibition of purified COX-2 by NSAID derivatives (species not stated); format: biochemical; settings: purified enzyme
T4 sequence (P35354 18-604): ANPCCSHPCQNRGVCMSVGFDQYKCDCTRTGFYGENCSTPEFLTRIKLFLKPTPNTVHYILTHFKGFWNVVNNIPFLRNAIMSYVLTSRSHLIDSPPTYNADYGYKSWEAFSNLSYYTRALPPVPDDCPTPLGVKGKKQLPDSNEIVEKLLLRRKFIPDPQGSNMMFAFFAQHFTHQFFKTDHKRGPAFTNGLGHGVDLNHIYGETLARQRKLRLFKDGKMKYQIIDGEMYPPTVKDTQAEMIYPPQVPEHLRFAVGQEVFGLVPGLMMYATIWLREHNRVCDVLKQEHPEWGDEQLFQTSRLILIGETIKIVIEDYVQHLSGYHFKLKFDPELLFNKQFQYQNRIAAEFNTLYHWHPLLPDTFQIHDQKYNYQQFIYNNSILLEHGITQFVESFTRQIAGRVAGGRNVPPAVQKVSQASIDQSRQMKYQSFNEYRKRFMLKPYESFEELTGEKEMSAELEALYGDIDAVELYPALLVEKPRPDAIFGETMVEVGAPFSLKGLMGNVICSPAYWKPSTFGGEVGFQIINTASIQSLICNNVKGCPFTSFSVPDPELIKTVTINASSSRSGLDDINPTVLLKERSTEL
Description: as §1

COc1ccc2c(c1)c(CC(=O)Nc1ccc(F)cc1)c(C)n2C(=O)c1ccc(Cl)cc1 [Compound 18, p-fluorophenyl derivative of indomethacin amide]
IC50 [1]: > 66 µM
anti-inflammatory activity in rat footpad edema assay ([2]; following oral installation): anti-inflammatory activity
ED50 ([2]; rat carageenan footpad model (Example 14)): 0.25 mg/kg
clearance half-life [3]: 4 h
half-life in plasma ([3]; po): 4 h
oral bioavailability ([3]; po): 30%
half-life, rat liver microsomes [4]: 1.67 h

CCCCC#CCSc1ccccc1OC(=O)CF [F-APHS]
concentration up to which COX-1 activity is not inhibited [5]: > 32 µM
IC50 [6]: 2.8 µM
IC50 [7]: 4 µM

From patent US20050002859A1, “COX-2-targeted imaging agents” (Vanderbilt University, priority 2003, published 2005)
